What was measured:
[1] = biological target: T1, GR (Homo sapiens, UniProt P04150); test: In Vitro GR Luciferase Reporter Assay (antagonist mode, CHO-K1-GR-MMTV-Luc reporter cells); assay type: cell-based; conditions: antagonist mode, 10 nM Dexamethasone
T1 construct: expressed in transfected cells; host or cells: CHO-K1
T1 sequence (P04150 1-777): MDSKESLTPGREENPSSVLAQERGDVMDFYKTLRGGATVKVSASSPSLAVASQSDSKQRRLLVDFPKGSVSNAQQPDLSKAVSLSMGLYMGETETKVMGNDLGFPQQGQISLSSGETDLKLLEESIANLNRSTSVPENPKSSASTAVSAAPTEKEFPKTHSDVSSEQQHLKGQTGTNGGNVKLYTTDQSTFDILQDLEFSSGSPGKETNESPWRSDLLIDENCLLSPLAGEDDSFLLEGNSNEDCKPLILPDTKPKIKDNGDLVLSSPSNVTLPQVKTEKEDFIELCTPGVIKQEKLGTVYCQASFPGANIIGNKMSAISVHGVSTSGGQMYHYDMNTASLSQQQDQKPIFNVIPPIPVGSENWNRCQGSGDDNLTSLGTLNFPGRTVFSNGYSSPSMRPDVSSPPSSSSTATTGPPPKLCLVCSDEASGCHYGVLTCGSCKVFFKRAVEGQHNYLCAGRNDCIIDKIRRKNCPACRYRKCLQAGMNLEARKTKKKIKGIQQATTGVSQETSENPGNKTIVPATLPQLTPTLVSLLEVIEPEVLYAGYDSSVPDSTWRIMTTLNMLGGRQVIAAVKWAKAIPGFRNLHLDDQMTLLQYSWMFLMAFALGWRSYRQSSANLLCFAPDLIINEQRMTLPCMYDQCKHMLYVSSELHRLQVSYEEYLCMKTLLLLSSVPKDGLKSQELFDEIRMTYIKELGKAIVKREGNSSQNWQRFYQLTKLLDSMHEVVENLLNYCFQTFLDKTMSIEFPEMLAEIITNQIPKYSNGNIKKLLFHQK
Procedure, shortened: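 CHO-K1-GR-MMTV-Luc cells in phenol red-free DMEM with 10% CSS, stimulated with 10 nM dexamethasone (final) and treated with 8-point 1:5 compound dilutions for about 18-24 h at 37° C. Luciferase measured by OneGlo luminescence; IC50 derived for inhibition of GR activity.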

[2] = biological target: T2, CYP2C8 (Homo sapiens, UniProt P10632); test: CYP Inhibition Assay (CYP2C8, human liver microsomes, paclitaxel substrate); assay type: in vitro ADME; conditions: pH 7.4; pooled human liver microsomes 0.1 mg/mL, probe substrate paclitaxel
T2 construct: Pooled human microsomes were obtained from Sekisui XenoTech, KS; tissue Sekisui XenoTech, KS; host or cells: pooled human liver microsomes
T2 sequence (P10632 1-490): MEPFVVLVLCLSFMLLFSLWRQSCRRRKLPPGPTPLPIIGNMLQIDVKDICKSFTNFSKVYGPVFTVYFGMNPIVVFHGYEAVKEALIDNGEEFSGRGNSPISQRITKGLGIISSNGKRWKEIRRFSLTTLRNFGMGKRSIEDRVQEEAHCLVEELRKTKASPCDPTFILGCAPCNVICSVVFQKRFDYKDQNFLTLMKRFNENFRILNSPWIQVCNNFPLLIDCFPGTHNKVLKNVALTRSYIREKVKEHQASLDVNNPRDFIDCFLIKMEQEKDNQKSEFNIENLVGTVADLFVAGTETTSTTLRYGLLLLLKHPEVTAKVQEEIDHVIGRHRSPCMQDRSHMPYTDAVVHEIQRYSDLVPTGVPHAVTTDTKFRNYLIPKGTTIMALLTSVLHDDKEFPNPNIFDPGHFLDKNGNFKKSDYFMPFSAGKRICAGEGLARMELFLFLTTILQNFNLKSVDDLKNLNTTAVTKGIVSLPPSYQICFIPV
Procedure, shortened: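 Pooled human liver microsomes (0.1 mg/mL) in 50 mM potassium phosphate pH 7.4 with compound, started with 1 mM NADPH, 5 min at 37° C, duplicate.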

IC50 [1] [nM] | inhibition at 5 min [2] [%] | SMILES
≤ 100 | 25 to 50 | Cn1cc(S(=O)(=O)N(C2CC2)[C@H]2CCC3=Cc4c(cnn4-c4ccc(F)cc4)C[C@]3(C(=O)c3ncc(C(F)(F)F)s3)C2)nn1 [Example 219, N-cyclopropyl-N-((4aS,6S)-1-(4-fluorophenyl)-4a-(5 (trifluoromethyl)thiazole-2-carbonyl)-4,4a,5,6,7,8-hexahydro-1H-benzo[f]indazol-6-yl)-1-methyl-1H-1,2,3-triazole-4-sulfonamide]
≤ 100 | 50 to 75 | Cn1cc(S(=O)(=O)N(C2CC2)[C@H]2CCC3=Cc4c(cnn4-c4ccc(F)cc4)C[C@]3(C(=O)c3cc(C(F)(F)F)ccn3)C2)nn1 [Example 222, N-cyclopropyl-N-((4aS,6S)-1-(4-fluorophenyl)-4a-(4-(trifluoromethyl)picolinoyl)-4,4a,5,6,7,8-hexahydro-1H-benzo[f]indazol-6-yl)-1-methyl-1H-1,2,3-triazole-4-sulfonamide]
≤ 100 | 25 to 50 | O=C(c1cc(C(F)(F)F)ccn1)[C@]12Cc3cnn(-c4ccc(F)cc4)c3C=C1CC[C@H](N(C1CC1)S(=O)(=O)c1ccc(Cl)nc1)C2 [Example 223, 6-chloro-N-cyclopropyl-N-((4aS,6S)-1-(4-fluorophenyl)-4a-(4-(trifluoromethyl)picolinoyl)-4,4a,5,6,7,8-hexahydro-1H-benzo[f]indazol-6-yl)pyridine-3-sulfonamide]
≤ 100 | 25 to 50 | Cn1ccc(S(=O)(=O)N(C2CC2)[C@H]2CCC3=Cc4c(cnn4-c4ccc(F)cc4)C[C@]3(C(=O)c3cc(F)ccn3)C2)n1 [Example 224, N-cyclopropyl-N-((4aS,6S)-1-(4-fluorophenyl)-4a-(4-fluoropicolinoyl)-4,4a,5,6,7,8-hexahydro-1H-benzo[f]indazol-6-yl)-1-methyl-1H-pyrazole-3-sulfonamide]
≤ 100 | 50 to 75 | Cn1ccc(S(=O)(=O)N(C2CC2)[C@H]2CCC3=Cc4c(cnn4-c4ccc(F)cc4)C[C@]3(C(=O)c3cc(Cl)ccn3)C2)n1 [Example 225, N-((4aS,6S)-4a-(4-chloropicolinoyl)-1-(4-fluorophenyl)-4,4a,5,6,7,8-hexahydro-1H-benzo[f]indazol-6-yl)-N-cyclopropyl-1-methyl-1H-pyrazole-3-sulfonamide]
≤ 100 | 50 to 75 | Cn1cnc(S(=O)(=O)N(C2CCC2)[C@H]2CCC3=Cc4c(cnn4-c4ccc(F)cc4)C[C@]3(C(=O)c3cc(C(F)(F)F)ccn3)C2)c1 [Example 226, N-cyclobutyl-N-((4aS,6S)-1-(4-fluorophenyl)-4a-(4-(trifluoromethyl)picolinoyl)-4,4a,5,6,7,8-hexahydro-1H-benzo[f]indazol-6-yl)-1-methyl-1H-imidazole-4-sulfonamide]
≤ 100 | 50 to 75 | Cn1cc(S(=O)(=O)N(CC2CC2)[C@H]2CCC3=Cc4c(cnn4-c4ccc(F)cc4)C[C@]3(C(=O)c3cc(C(F)(F)F)ccn3)C2)nn1 [Example 229, N-(cyclopropylmethyl)-N-((4aS,6S)-1-(4-fluorophenyl)-4a-(4-(trifluoromethyl)picolinoyl)-4,4a,5,6,7,8-hexahydro-1H-benzo[f]indazol-6-yl)-1-methyl-1H-1,2,3-triazole-4-sulfonamide]
≤ 100 | 50 to 75 | Cn1cc(S(=O)(=O)N(C2CCC2)[C@H]2CCC3=Cc4c(cnn4-c4ccc(F)cc4)C[C@]3(C(=O)c3cc(C(F)(F)F)ccn3)C2)nn1 [Example 230, N-cyclobutyl-N-((4aS,6S)-1-(4-fluorophenyl)-4a-(4-(trifluoromethyl)picolinoyl)-4,4a,5,6,7,8-hexahydro-1H-benzo[f]indazol-6-yl)-1-methyl-1H-1,2,3-triazole-4-sulfonamide]
≤ 100 | 25 to 50 | CCN([C@H]1CCC2=Cc3c(cnn3-c3ccc(F)cc3)C[C@]2(C(=O)c2cc(C(F)(F)F)ccn2)C1)S(=O)(=O)c1cn(C)nn1 [Example 231, N-ethyl-N-((4aS,6S)-1-(4-fluorophenyl)-4a-(4-(trifluoromethyl)picolinoyl)-4,4a,5,6,7,8-hexahydro-1H-benzo[f]indazol-6-yl)-1-methyl-1H-1,2,3-triazole-4-sulfonamide]

More lines, now with the values behind:

SMILES | IC50 [1] [nM] | inhibition at 5 min [2] [%]
CC(C)N([C@H]1CCC2=Cc3c(cnn3-c3ccc(F)cc3)C[C@]2(C(=O)c2cc(C(F)(F)F)ccn2)C1)S(=O)(=O)c1cn(C)cn1 [Example 221, N-((4aS,6S)-1-(4-fluorophenyl)-4a-(4-(trifluoromethyl)picolinoyl)-4,4a,5,6,7,8-hexahydro-1H-benzo[f]indazol-6-yl)-N-isopropyl-1-methyl-1H-imidazole-4-sulfonamide] | ≤ 100 | 50 to 75
O=C(c1cc(F)ccn1)[C@]12Cc3cnn(-c4ccc(F)cc4)c3C=C1CC[C@H](N(C1CC1)S(=O)(=O)c1ccc(F)cc1)C2 [Example 228, N-cyclopropyl-4-fluoro-N-((4aS,6S)-1-(4-fluorophenyl)-4a-(4-fluoropicolinoyl)-4,4a,5,6,7,8-hexahydro-1H-benzo[f]indazol-6-yl)benzenesulfonamide] | ≤ 100 | 50 to 75
CC(C)N([C@H]1CCC2=Cc3c(cnn3-c3ccc(F)cc3)C[C@]2(C(=O)c2ncc(C(F)(F)F)s2)C1)S(=O)(=O)c1cnn(C)n1 [Example 233, N-((4aS,6S)-1-(4-fluorophenyl)-4a-(5-(trifluoromethyl)thiazole-2-carbonyl)-4,4a,5,6,7,8-hexahydro-1H-benzo[f]indazol-6-yl)-N-isopropyl-2-methyl-2H-1,2,3-triazole-4-sulfonamide] | ≤ 100 | 75 to 90
CC(C)N([C@H]1CCC2=Cc3c(cnn3-c3ccc(F)cc3)C[C@]2(C(=O)c2cc(C(F)(F)F)ccn2)C1)S(=O)(=O)c1cnn(C)n1 [Example 234, N-((4aS,6S)-1-(4-fluorophenyl)-4a-(4-(trifluoromethyl)picolinoyl)-4,4a,5,6,7,8-hexahydro-1H-benzo[f]indazol-6-yl)-N-isopropyl-2-methyl-2H-1,2,3-triazole-4-sulfonamide] | ≤ 100 | 75 to 90
Cn1ncc(S(=O)(=O)N(CC(C)(C)O)[C@H]2CCC3=Cc4c(cnn4-c4ccc(F)cc4)C[C@]3(C(=O)c3ncc(C(F)(F)F)s3)C2)n1 [Example 236, N-((4aS,6S)-1-(4-fluorophenyl)-4a-(5-(trifluoromethyl)thiazole-2-carbonyl)-4,4a,5,6,7,8-hexahydro-1H-benzo[f]indazol-6-yl)-N-(2-hydroxy-2-methylpropyl)-2-methyl-2H-1,2,3-triazole-4-sulfonamide] | ≤ 100 | 50 to 75
CC(C)N([C@H]1CCC2=Cc3c(cnn3-c3ccc(F)cc3)C[C@]2(C(=O)c2cc(F)ccn2)C1)S(=O)(=O)c1ccn(C)n1 [Example 241, N-((4aS,6S)-1-(4-fluorophenyl)-4a-(4-fluoropicolinoyl)-4,4a,5,6,7,8-hexahydro-1H-benzo[f]indazol-6-yl)-N-isopropyl-1-methyl-1H-pyrazole-3-sulfonamide] | ≤ 100 | 75 to 90
CC(C)N([C@H]1CCC2=Cc3c(cnn3-c3ccc(F)cc3)C[C@]2(C(=O)c2cc(Cl)ccn2)C1)S(=O)(=O)c1ccn(C)n1 [Example 242, N-((4aS,6S)-4a-(4-chloropicolinoyl)-1-(4-fluorophenyl)-4,4a,5,6,7,8-hexahydro-1H-benzo[f]indazol-6-yl)-N-isopropyl-1-methyl-1H-pyrazole-3-sulfonamide] | ≤ 100 | 75 to 90

From patent US20210122730A1, “GLUCOCORTICOID RECEPTOR MODULATORS” (ORIC Pharmaceuticals, Inc., priority 2017, published 2021)
